From patent US20250276120A1, “METHOD FOR PREVENTING COAGULATION IN PATIENTS WITH IMPLANTED CARDIAC DEVICES” (Cadrenal Therapeutics, Inc., priority 2024, published 2025)
Like-named read-outs stand apart in the source and are kept apart here.

How the values were obtained:
[1] = human, in vivo
cytochrome P450 system = conditions: cited from earlier work
[2] = pharmacokinetic study with fluconazole (CYP2C9 inhibitor) co-administration in healthy volunteers; conditions: fluconazole co-administered
[3] = time-within-therapeutic range (TTR), supporting clinical data; format: in vivo, human; conditions: stable anticoagulation with tecarfarin
Description: Tecarfarin is not metabolized via the cytochrome P450 system, but rather via an alternate pathway and enzyme (h-CE2) that is abundant throughout the body and essentially insaturable. Tecarfarin has a reliable and stable PK profile and PD response (anticoagulation), a well-understood mechanism of action (similar to other VKAs), with supporting clinical data.

[4] = molecular target: T1, human carboxylesterase 2 (hCE-2) (Homo sapiens, UniProt O00748); conditions: cited from earlier work
T1 sequence (O00748 27-559): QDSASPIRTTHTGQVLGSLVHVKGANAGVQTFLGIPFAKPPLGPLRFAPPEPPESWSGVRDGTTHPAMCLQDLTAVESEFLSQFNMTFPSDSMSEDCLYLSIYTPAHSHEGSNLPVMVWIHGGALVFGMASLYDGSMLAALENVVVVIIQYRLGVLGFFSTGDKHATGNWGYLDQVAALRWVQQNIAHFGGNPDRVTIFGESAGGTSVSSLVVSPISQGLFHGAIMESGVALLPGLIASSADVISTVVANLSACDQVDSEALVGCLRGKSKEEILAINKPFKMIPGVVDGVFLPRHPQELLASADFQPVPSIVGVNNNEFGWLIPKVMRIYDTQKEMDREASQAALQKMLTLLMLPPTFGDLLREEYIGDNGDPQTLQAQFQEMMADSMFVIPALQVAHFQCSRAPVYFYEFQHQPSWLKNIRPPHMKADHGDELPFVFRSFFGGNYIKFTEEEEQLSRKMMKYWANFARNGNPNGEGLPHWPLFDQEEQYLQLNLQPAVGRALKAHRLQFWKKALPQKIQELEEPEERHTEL

[5] = Phase 2/3 randomized, double-blind, active-control study tecarfarin versus warfarin, TTR as primary efficacy endpoint; format: in vivo, human
[6] = aspirin added to warfarin, patients with atrial fibrillation already on warfarin; cited from earlier work

CC(=O)CC(c1ccccc1)c1c(O)c2ccccc2oc1=O (racemic) [warfarin]
effect of CKD on the effect of CYP2C9 genetic variation on exposure [1]: significantly increased
mean plasma concentrations in subjects with CKD versus healthy subjects [1]: significantly higher
metabolism by the cytochrome P450 system (cytochrome P450 system): metabolized by multiple different isoenzymes of the cytochrome P450 system (primarily CYP2C9, CYP1A2 and CYP3A4)

CC(=O)C[C@@H](c1ccccc1)c1c(O)c2ccccc2oc1=O [(S)-warfarin, reference compound]
mean plasma concentrations in subjects with CKD versus healthy subjects (CKD versus healthy subjects): significantly higher
effect of CKD on the effect of CYP2C9 genetic variation on exposure (CKD, CYP2C9 genotype): significantly increased
effect of fluconazole co-administration on drug exposure [2]: significantly prolonged

CC(=O)C[C@H](c1ccccc1)c1c(O)c2ccccc2oc1=O [R-warfarin]
effect of fluconazole co-administration on drug exposure [2]: significantly prolonged

CC(OC(=O)c1ccc(Cc2c(O)c3ccccc3oc2=O)cc1)(C(F)(F)F)C(F)(F)F [Tecarfarin, 1,1,1,3,3,3-hexafluoro-2-methyl-2-propanyl 4-[(4-hydroxy-2-oxo-2H-chromen-3-yl)methyl] benzoate]
time-within-therapeutic range (TTR) [3]: > 72%
metabolic pathway (carboxylesterase) [4]: hydrolysis via by human carboxylesterase 2 (hCE-2)
TTR on tecarfarin compared to warfarin ([5]; CYP2C9 genotypic variants on CYP2C9 inhibitors, small number of subjects): higher
percent of time-within-therapeutic-range (TTR), tecarfarin versus warfarin ([5]; general population requiring chronic oral anticoagulation, blinded treatment): did not differ significantly
TTR, tecarfarin versus warfarin ([5]; subjects with CYP2C9 wild type genotype): significant improvement
metabolism by the cytochrome P450 system (cytochrome P450 system): does not proceed via the cytochrome P450 system
change of elimination half-life (t1/2) in CKD (CKD versus healthy subjects): decreased
mean plasma concentrations in subjects with CKD versus healthy subjects (CKD versus healthy subjects): not significantly higher
effect of fluconazole co-administration on PK [2]: unaffected

CC(=O)Oc1ccccc1C(=O)O [aspirin]
incremental rate of major bleeding [6]: 1.6 % per year
